The structures appear in SMILES notation.

One assay has as its system HCT116. The assay can be described thus: In Vitro cytotoxicity measured by the cell colony formation assay. The note with it: HCT116 colony formation; 72 h with drug, colonies counted after 7 days; ID50 = concentration producing 50% inhibition of colony formation; read-out: IN VITRO ID 50 HCT116. Type of assay: cell-based, human. How it is done:
Four hundred cells (HCT116) were plated in 60 mm Petri dishes containing 2.7 mL of medium (modified McCoy's 5a medium containing 10% fetal bovine serum and 100 units/mL penicillin and […] streptomycin). The cells were incubated in a CO2 incubator at 37 °C for 5 h for attachment to the bottom of Petri dishes. The compounds identified in Example 2 were made up fresh in medium at ten times the final concentration, and then 0.3 mL of this stock solution was added to the 2.7 mL of medium in the dish. The cells were then incubated with drugs for 72 h at 37 °C. At the end of incubation the drug-containing media were decanted, the dishes were rinsed with 4 mL of Hank's Balance Salt Solution (HBSS), 5 mL of fresh medium was added, and the dishes were returned to the incubator for colony formation. The cell colonies were counted using a colony counter after incubation for 7 days.
Take `CC=CC(=O)OC1C(=O)C2(C)C(O)CC3OCC3(OC(C)=O)C2C(OC(=O)c2ccccc2)C2(O)CC(OC(=O)C(O)C(NC(=O)OC(C)(C)C)c3ccc([N+](=O)[O-])cc3)C(C)=C1C2(C)C` (centres unmarked) [Compound 2439]: the IC50 was below 10 nM.
In the case of `CC=CC(=O)OC1C(=O)C2(C)C(O)CC3OCC3(OC(C)=O)C2C(OC(=O)c2ccccc2)C2(O)CC(OC(=O)C(O)C(C=C(C)C)NC(=O)OC(C)(C)C)C(C)=C1C2(C)C` (centres unmarked) [Compound 2332], the IC50 is below 1 nM.

Still in this assay, the particulars now being: Homo sapiens, HCT-116; read-out: IN VITRO ID 50 HCT116.
For `C/C=C/C(=O)N[C@@H](c1ccoc1)[C@@H](O)C(=O)O[C@H]1C[C@@]2(O)[C@@H](OC(=O)c3ccccc3)[C@@H]3[C@]4(OC(C)=O)CO[C@@H]4C[C@H](O)[C@@]3(C)C(=O)[C@H](OC(=O)CCC)C(=C1C)C2(C)C` [Compound 4919], the IC50 was below 1 nM.
For `CCC(=O)O[C@H]1C(=O)[C@@]2(C)[C@H]([C@H](OC(=O)c3ccccc3)[C@]3(O)C[C@H](OC(=O)[C@H](O)[C@@H](NC(=O)OC(C)(C)C)c4ccsc4)C(C)=C1C3(C)C)[C@]1(OC(C)=O)CO[C@@H]1C[C@@H]2O` [Compound 0562], the IC50 is below 1 nM.
Regarding `CCC(=O)O[C@H]1C(=O)[C@@]2(C)[C@H]([C@H](OC(=O)c3ccccc3)[C@]3(O)C[C@H](OC(=O)[C@H](O)[C@@H](NC(=O)c4ccncc4)c4cccs4)C(C)=C1C3(C)C)[C@]1(OC(C)=O)CO[C@@H]1C[C@@H]2O` [Compound 4207], the IC50 was below 10 nM.
For the molecule `CC(=O)O[C@@]12CO[C@@H]1C[C@H](O)[C@@]1(C)C(=O)[C@H](OC(=O)C3CC3)C3=C(C)[C@@H](OC(=O)[C@H](O)[C@@H](NC(=O)OC(C)(C)C)c4ccco4)C[C@@](O)([C@@H](OC(=O)c4ccccc4)[C@H]21)C3(C)C` [Compound 0843], the IC50 is below 1 nM.
As to `CCOC(=O)N[C@@H](c1cccs1)[C@@H](O)C(=O)O[C@H]1C[C@@]2(O)[C@@H](OC(=O)c3ccccc3)[C@@H]3[C@]4(OC(C)=O)CO[C@@H]4C[C@H](O)[C@@]3(C)C(=O)[C@H](OC(=O)C3CC3)C(=C1C)C2(C)C` [Compound 4051], the IC50 was below 1 nM.
Consider `CC=CC(=O)NC(c1ccsc1)C(O)C(=O)OC1CC2(O)C(OC(=O)c3ccccc3)C3C4(OC(C)=O)COC4CC(O)C3(C)C(=O)C(OC(=O)C3CC3)C(=C1C)C2(C)C` (centres unmarked) [Compound 5040], for which the IC50 is below 1 nM.
On to `CCC(=O)OC1C(=O)C2(C)C(O)CC3OCC3(OC(C)=O)C2C(OC(=O)c2ccccc2)C2(O)CC(OC(=O)C(O)C(NC(=O)OC(C)(C)C)c3ccoc3)C(C)=C1C2(C)C` (centres unmarked) [Compound 5495], for which the IC50 is below 1 nM.
In the case of `CCOC(=O)N[C@@H](c1ccco1)[C@@H](O)C(=O)O[C@H]1C[C@@]2(O)[C@@H](OC(=O)c3ccccc3)[C@@H]3[C@]4(OC(C)=O)CO[C@@H]4C[C@H](O)[C@@]3(C)C(=O)[C@H](OC(=O)C3CC3)C(=C1C)C2(C)C` [Compound 3677], the IC50 is below 1 nM.
Still for that read-out and setting: the value for `CC(=O)O[C@@]12CO[C@@H]1C[C@H](O)[C@@]1(C)C(=O)[C@H](OC(=O)c3cccs3)C3=C(C)[C@@H](OC(=O)[C@H](O)[C@@H](NC(=O)OC(C)(C)C)c4ccsc4)C[C@@](O)([C@@H](OC(=O)c4ccccc4)[C@H]21)C3(C)C` [Compound 1939] was below 1 nM; that for `CCC(=O)O[C@H]1C(=O)[C@@]2(C)[C@H]([C@H](OC(=O)c3ccccc3)[C@]3(O)C[C@H](OC(=O)[C@H](O)[C@@H](NC(=O)OC(C)C)c4ccco4)C(C)=C1C3(C)C)[C@]1(OC(C)=O)CO[C@@H]1C[C@@H]2O` [Compound 3522] was below 1 nM.
For `CCC(=O)O[C@H]1C(=O)[C@@]2(C)[C@H]([C@H](OC(=O)c3ccccc3)[C@]3(O)C[C@H](OC(=O)[C@H](O)[C@@H](NC(=O)OCC(C)C)c4ccsc4)C(C)=C1C3(C)C)[C@]1(OC(C)=O)CO[C@@H]1C[C@@H]2O` [Compound 4711], the IC50 was below 10 nM.
Same read-out and setting: for `CC(=O)OC12COC1CC(O)C1(C)C(=O)C(OC(=O)C(C)C)C3=C(C)C(OC(=O)C(O)C(NC(=O)OC(C)(C)C)c4ccc([N+](=O)[O-])cc4)CC(O)(C(OC(=O)c4ccccc4)C21)C3(C)C` (centres unmarked) [Compound 2320] the value was below 1 nM.
